How the values were obtained:
[1] = system: R848-driven IRF reporter (Lucia luciferase, ISG54 promoter/IFN-stimulated response elements) in THP-1 cells; test: TLR7/8 (R848) stimulated interferon response element reporter gene assay in THP1-Dual cells; type: cell-based; settings: Homo sapiens, THP-1, 10 μM compound, 1 μM R848, THP1-Dual cells; read-out: R848-driven IRF reporter gene assay (Percent inhibition at 10 μM)
Procedure: (§1) Compounds described herein are added to the human leukemic monocyte-like cell line THP-1 for bioactivity assessment. THP1-Dual cells (InvivoGen, San Diego, CA) feature the Lucia gene, a secreted luciferase reporter gene, under the control of an ISG54 minimal promoter in conjunction with five IFN-stimulated response elements. THP1-Dual cells also express a secreted embryonic alkaline phosphatase (SEAP) reporter gene driven by an IFN-β minimal promoter fused to five copies of the NF-κB consensus transcriptional response element and three copies of the c-Rel binding site. As a result, THP1-Dual cells allow the simultaneous study of the NF-κB pathway, by monitoring the activity of SEAP, and the IRF pathway, by assessing the activity of Lucia luciferase.
(§2) THP-1 dual reporter cells were grown in RPMI 1640 culture medium with 2 mM L-glutamine, 25 mM HEPES, 10% heat-inactivated fetal bovine serum, 100 μg/ml Normocin antibiotic (InvivoGen), Pen-Strep antibiotic (100 U/ml-100 μg/ml, InvivoGen). On the day of the assay, cells were seeded in a 384 flat-bottom well plate at 25,000 cells/well and incubated for 2 hours. Cells were then incubated with 10 μM of the compounds described herein or with 1 μM of IKK-16 (Selleck), a potent inhibitor of IκB kinases (IKKs) or with DMSO (vehicle control) for 2 hours, followed by the addition of the synthetic TLR7/8 agonist R848 at 1 μM and incubation for 16 hours. After incubation was concluded, the cultures supernatants were collected and IRF related activity was assessed by measurement of the Lucia luciferase, using Quanti-Luc assay (InvivoGen). NF-κB pathway activity was assessed by quantifying SEAP using Quanti-Blue assay (InvivoGen).

[2] = system: R848-driven NFκB reporter (SEAP) in THP-1 cells; test: TLR7/8 (R848) stimulated NFκB reporter gene assay in THP1-Dual cells; type: cell-based; settings: Homo sapiens, THP-1, 10 μM compound, 1 μM R848, THP1-Dual cells; read-out: R848-driven NFκB reporter gene assay (Percent inhibition at 10 μM)
Procedure: as §1, §2

[3] = system: LPS induced septic shock, C57/B6L mice; test: LPS induced septic shock model in mice; type: in vivo
Procedure: In the LPS induced septic shock model in mice, the TLR4 agonist LPS is injected into the peritoneal cavity of mice, inducing production of pro-inflammatory cytokines that can be measured in blood two hours later (FIG. 2).
Female C57/B6L mice, 5 mice in each group, were injected with LPS (1 mg/kg) to induce septic shock 30 minutes after oral administration of compounds described herein (formulated in Phosal 50) or the controls dexamethasone (formulated in saline), a corticosteroid, and MCC950 (formulated in 0.5% methylcellulose), an inflammasome inhibitor. The mice were euthanized 2 hours after LPS stimulation, and the whole blood was drawn, processed to plasma, and snap frozen. Cytokine levels in plasma were determined by cytometric bead array assay.

[4] = system: TNBS-induced colitis, Balb/c mice; test: TNBS-induced model of colitis in mice, dosing from day -1, prophylactic mode; type: in vivo; settings: for IL-1ß in plasma / IL-6 in plasma: vs Vehicle group; for pathological score (crypt structure failure, inflammatory cell infiltration): H&E colon
Procedure: (§3) Female Balb/c mice aged 8 weeks and weighing 18-20 g were housed under standard conditions. The mice were divided into groups with 8-10 mice in each group by body weight. Mice in sham group received intracolonic injection with 50% ethanol (0.1 mL) at day 0, whereas mice in other Trinitrobenzene sulfonic acid (TNBS) colitis model groups received intracolonic injection of 2% TNBS solution in ethanol (0.1 mL) at day 0. The reference compound Mesalazine (Selleck) and test articles described here were dosed from day-1 to day 6. Day 6 was the endpoint, and samples were immediately harvested for the last endpoint. Mesalazine was dissolved in distilled water (pH 7.0) and test articles were dissolved in Phosal 50 PG for delivery by oral gavage.
As noted, dosing of the compounds described herein, as well as the positive control mesalamine, began one day before TNBS administration. Animals in this scenario have not yet developed colitis symptoms before administration of test articles. For this reason, we refer to these conditions as “prophylactic mode”.
(§4) Body weight and Disease Activity Index (DAI) scores were recorded daily to assess the colitis. DAI score was the sum of the weight loss score, stool score and bleeding sub-scores. A blinded scoring system was employed to assess the colitis. The DAI scorer blinded to the group information and animal ID was responsible for the stool consistency and bleeding evaluations. If there was no blood visible with naked eyes, the Fecal occult blood (FOB) test was performed with a fecal occult blood test strip (the improved pyramidon method).
(§5) Colon tissue morphology, damage and healing were assessed by histopathology. The colons were harvested, mesentery and adipose tissue were carefully removed, and internal contents were removed by rinsing with cold PBS. The colons were Swiss-rolled and fixed in neutralized paraformaldehyde followed by H&E staining. Clinical pathologists reviewed the H&E staining and scored blinded with animal ID. The pathological scoring standards were: crypt architecture (normal, 0-severe crypt distortion with loss of entire crypts, 3), degree of inflammatory cell infiltration (normal, 0-dense inflammatory infiltrate, 3), muscle thickening (base of crypt sits on the muscularis mucosae, 0-marked muscle thickening present, 3), goblet cell depletion (absent, 0-present, 1) and crypt abscess (absent, 0-present, 1).
The plasma was collected at Day-1 for PK and cytokine (IL-1ß and IL-6) analysis by mandibular venipuncture.
(§6) The data was compared by ANOVA with post-hoc Dunnett's multiple comparisons test using Graph Pad Prism 7.0 software (San Diego, CA, USA). P-value<0.05 was considered as statistically significant difference. For pairwise comparison of histology scores and cytokines, unpaired t-test was used to calculate statistical significance. Data was expressed as mean±standard error of mean. In figures, statistical significance is denoted by asterisks: *p<0.05 **p<0.01 ***p<0.005, ****p<0.0001.

[5] = system: TNBS-induced colitis, Balb/c mice; test: TNBS-induced model of colitis in mice, dosing from day 2, therapeutic mode; type: in vivo; settings: for IL-1B in plasma / IL-6 in plasma: dosing from day 2, vs Vehicle group
Procedure: as §3, §4, §5, §6
Procedures were identical to those in Example 26, except that dosing of the compounds described herein, as well as the positive control mesalamine, began on the second day after TNBS administration, as diagrammed in FIG. 18. Animals in this scenario have developed colitis symptoms before administration of test articles. This is more similar to the clinical scenario with patients with inflammatory bowel disorder presenting with symptoms. For this reason, we refer to these conditions as “therapeutic mode”.

[6] = 30 mg/kg PO in Phosal 50, 30 min before LPS 1 mg/kg, plasma 2 hours after LPS, vs vehicle
[7] = 30 mg/kg PO, QD, dosing from day 2

Compound CN1[C@@H](C(=O)O)CC[C@H]1[C@@H]1COC(c2ccccc2O)=N1 [Compound I-2, (2R,5S)-5-((R)-2-(2-hydroxyphenyl)-4,5-dihydrooxazol-4-yl)-1-methylpyrrolidine-2-carboxylic acid] has an inhibition at 10 µM [1] of 31% and an inhibition at 10 µM [2] of 5%.

CN1[C@@H](C(=O)O)CC[C@@H]1[C@@H]1CSC(c2ccccc2O)=N1 [Compound I-3, (2R,5R)-5-((R)-2-(2-hydroxyphenyl)-4,5-dihydrothiazol-4-yl)-1-methylpyrrolidine-2-carboxylic acid] was tested, and the inhibition at 10 µM [1] was ≥ 50%, the inhibition at 10 µM [2] was 40% and the IFNγ in plasma [3, 6] was “statistically significant decreases”. For the same compound, the IL-12p70 in plasma [3, 6] was “statistically significant decreases”, the TNFα in plasma [3, 6] was “statistically significant decreases” and the “body weight (% initial weight) recovery” value ([4]; 30 mg/kg, PO, QD, day -1 to day 6) was “faster recovery rate”. The total histology scores ([4]; 1, 3, 10 and 30 mg/kg PO, QD) was “lower”, the “Disease Activity Index (DAI) scores” value ([4]; 1, 3, 10 and 30 mg/kg PO, QD, day -1 to day 6) was “dose-dependent improvement” and the IL-1ß in plasma ([4]; 1, 3, 10 and 30 mg/kg PO, QD) was “decreased”. For the same compound, the IL-6 in plasma ([4]; 1, 3, 10 and 30 mg/kg PO, QD) was “decreased”, the “pathological score (crypt structure failure, inflammatory cell infiltration)” value ([4]; 1, 3, 10 and 30 mg/kg PO, QD) was “lower” and the ED50 ([4]; Mus musculus, 144 h, PO, QD, day -1 to day 6, read-out: dose for half maximal effect or ED50 (DAI score at Day 6)) was 15 mg/kg. The “colon recovery and mucosal healing” value ([4]; in a dose-dependent manner, prophylactic mode) was “promoted the colon recovery and mucosal healing”, the “Disease Activity Index (DAI) scores” value [5, 7] was “improvement” and the “body weight (% initial weight) recovery” value [5, 7] was “faster recovery rate”. The total histology scores [5, 7] was “lower”, the IL-1B in plasma ([5]; 30 mg/kg PO, QD) was “decreased” and the IL-6 in plasma ([5]; 30 mg/kg PO, QD) was “decreased”. The “colon recovery and mucosal healing” value ([5]; therapeutic mode) was “promoted the colon recovery and mucosal healing”.

In the case of C[C@@H]1C[C@H]2[C@@H]3CCC4=CC(=O)C=C[C@]4(C)[C@@]3(F)[C@@H](O)C[C@]2(C)[C@@]1(O)C(=O)CO [dexamethasone, reference compound], the “activity on plasma cytokines (positive control)” value ([3]; 1.5 mg/kg PO, formulated in saline) is reported as “active”.

CNC(=O)[C@H]1CC[C@@H]([C@@H]2CSC(c3ccccc3O)=N2)N1C [Compound I-5, (2R,5S)-5-((R)-2-(2-hydroxyphenyl)-4,5-dihydrothiazol-4-yl)-N,1-dimethyl pyrrolidine-2-carboxamide] gave an inhibition at 10 µM [1] of 17% and an inhibition at 10 µM [2] of 27%.

COCCOCCOc1ccc(C2=N[C@H]([C@@H]3CC[C@H](C(=O)O)N3C)CS2)c(O)c1 [Compound I-8, (2R,5S)-5-((R)-2-(2-hydroxy-4-(2-(2-methoxyethoxy)ethoxy)phenyl)-4,5-dihydrothiazol-4-yl)-1-methylpyrrolidine-2-carboxylic acid] was tested, and the inhibition at 10 µM [1] was ≥ 50% and the inhibition at 10 µM [2] was ≥ 50%.

CN1[C@@H](C(=O)O)CC[C@@H]1[C@@H]1COC(c2ncccc2O)=N1 [Compound I-11, (2R,5R)-5-((R)-2-(3-hydroxypyridin-2-yl)-4,5-dihydrooxazol-4-yl)-1-methylpyrrolidine-2-carboxylic acid] gave an inhibition at 10 µM [1] of 5% and an inhibition at 10 µM [2] of 6%.

COCCOCCOc1ccc(C2=N[C@H]([C@@H]3CC[C@H](C(=O)O)N3C)CO2)c(O)c1 [Compound I-7, (2R,5S)-5-((R)-2-(2-hydroxy-4-(2-(2-methoxyethoxy)ethoxy)phenyl)-4,5-dihydrooxazol-4-yl)-1-methylpyrrolidine-2-carboxylic acid] was tested, and the inhibition at 10 µM [1] was ≥ 50% and the inhibition at 10 µM [2] was 28%.

Compound CN1[C@@H](C(=O)O)CC[C@@H]1[C@@H]1COC(c2ccccc2O)=N1 [Compound I-1, (2R,5R)-5-((R)-2-(2-hydroxyphenyl)-4,5-dihydrooxazol-4-yl)-1-methylpyrrolidine-2-carboxylic acid] has an inhibition at 10 µM [1] of 20% and an inhibition at 10 µM [2] of 10%.

Compound COCCOCCOc1ccc(C2=N[C@H]([C@H]3CC[C@H](C(=O)O)N3C)CS2)c(O)c1 [Compound I-10, (2R,5R)-5-((R)-2-(2-hydroxy-4-(2-(2-methoxyethoxy)ethoxy)phenyl)-4,5-dihydrothiazol-4-yl)-1-methylpyrrolidine-2-carboxylic acid] has an inhibition at 10 µM [1] of 3% and an inhibition at 10 µM [2] of 14%.

With Nc1ccc(O)c(C(=O)O)c1 [Mesalazine, reference compound] the total histology scores ([4]; 100 mg/kg PO, QD) was “lower”, the “pathological score (crypt structure failure, inflammatory cell infiltration)” value ([4]; 100 mg/kg PO, QD) was “lower” and the “body weight (% initial weight) recovery” value ([4]; 100 mg/kg, QD, day -1 to day 6) was “faster recovery rate”. For the same compound, the IL-1ß in plasma ([4]; 100 mg/kg, QD) was “decreased”, the IL-6 in plasma ([4]; 100 mg/kg, QD) was “decreased” and the total histology scores ([5]; 100 mg/kg PO, QD, dosing from day 2) was “lower”. The “body weight (% initial weight) recovery” value ([5]; 100 mg/kg, QD, dosing from day 2) was “faster recovery rate”, the IL-1B in plasma ([5]; 100 mg/kg, QD) was “decreased” and the IL-6 in plasma ([5]; 100 mg/kg, QD) was “decreased”.
